Experimental data as given in patent publication US9040526B2, “Benzylpyrrolidinone derivatives as modulators of chemokine receptor activity” (Bristol-Myers Squibb Company, priority 2010, dated 2015).

Each compound was assayed against T1, CCR2 receptor (Homo sapiens, UniProt P41597) (assay: THP-1 monocytic cell binding: whole cell-based radioligand competition assay (125I-human MCP-1)). Settings: THP-1 cells expressing endogenous CCR2; 125I-MCP-1 tracer 0.2 nM; n = 1 unless otherwise noted.
T1 construct: THP-1 human monocytic leukemic cell line, which expresses endogenous CCR2; endogenous in cells; host or cells: THP-1 human monocytic leukemic cell line (whole cells)
T1 sequence (P41597 1-360 isoform P41597-2): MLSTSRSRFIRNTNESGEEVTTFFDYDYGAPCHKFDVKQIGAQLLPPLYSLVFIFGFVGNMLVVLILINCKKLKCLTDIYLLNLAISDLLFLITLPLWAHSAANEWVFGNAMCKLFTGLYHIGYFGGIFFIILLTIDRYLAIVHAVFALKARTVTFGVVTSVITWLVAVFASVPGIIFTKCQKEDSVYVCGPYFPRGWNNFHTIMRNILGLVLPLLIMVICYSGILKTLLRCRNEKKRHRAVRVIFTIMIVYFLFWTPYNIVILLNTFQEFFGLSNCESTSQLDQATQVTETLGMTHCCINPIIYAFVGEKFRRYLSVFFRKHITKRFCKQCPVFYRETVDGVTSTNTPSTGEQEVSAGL
Description: THP-1 Monocytic Cell Binding: Whole Cell-Based Assay
The human CCR2 binding assay was also established with the THP-1 human monocytic leukemic cell line, which expresses endogenous CCR2, using ^125I-human MCP-1 as the tracer ligand. Radioligand competition binding assays were used for assessment of binding affinity of test compounds to the CCR2 receptor. For radioligand competition studies, 100 μl containing 2.5×10^5 THP-1 cells/well (in assay buffer containing 50 mM HEPES, pH7.4, 5 mM MgCl2, 1 mM CaCl2 and 0.5% BSA) were added to 96-well assay plates containing the test compounds in 3-fold serial dilution, with final concentrations ranging from 5 μM to 100 pM. Subsequently, 50 μl ^125I-MCP-1 radioligand at a final concentration of 0.2 nM in assay buffer were added to the reaction. After a 90 minute incubation period at room temperature, the binding reaction was terminated by harvesting on GF/B filter plates (PerkinElmer Cat. No. 6005177) followed by washing with ice-cold wash buffer (50 mM HEPES, pH 7.4, 0.1% BSA, 0.5 M NaCl) to remove unbound ligand. After washing, the plate was dried for 45 minutes at 60° C. followed by addition of 40 μl MicroScint 20 scintillation fluid, sealed and analyzed by the Packard TopCount reader. Non-specific binding was determined in the presence of 10 μM (a molar excess of 5000 fold) of an in-house CCR2 small molecule antagonist (CCR2 IC50=2 nM). Specific binding of ^125I-MCP-1 was calculated as the difference between total and non-specific binding. The competition data was plotted as a percentage inhibition of radioligand specific bound in the absence of test compound (percent of total signal). After correcting for non-specific binding, IC50 values were determined. The IC50 is defined as the concentration of test compound required to reduce ^125-MCP-1 specific binding by 50% and was calculated using the four parameter logistic equation to fit the normalized data.
Compounds of the present invention were tested in the THP-1 monocytic binding assay described above and the results shown in Table 3 below were obtained.

`CC(C)C1(CCNC2CCC(O)CC2)CC2Oc3ccc(C(F)(F)F)cc3CN2C1=O` (mixture of isomers) [Example 3i, 2-(2-((1r,4r)-4-hydroxycyclohexylamino)ethyl)-2-isopropyl-7-(trifluoromethyl)-2,3,3a,9-tetrahydro-1H-benzo[e] pyrrolo[2,1-b][1,3]oxazin-1-one] and `CC(C)C1(CCNC2CCOCC2)CC2Oc3ccc(C(F)(F)F)cc3CN2C1=O` (single isomer, unassigned) [3h, diastereomer 2] are within 1.5-fold of each other in Ki: 639 nM for the first, 495 nM for the second.

Compared with `CC(C)C1(CCN2CCC(c3ccccc3)CC2)CC2Oc3ccc(C(F)(F)F)cc3CN2C1=O` (single isomer, unassigned) [3b, diastereomer 1], `CC(C)C1(CCN2CCC(c3ccccc3)C2)CC2Oc3ccc(C(F)(F)F)cc3CN2C1=O` (stereo not shown) [Example 3p, 2-isopropyl-2-(2-(3-phenylpyrrolidin-1-yl)ethyl)-7-(trifluoromethyl)-2,3,3a,9-tetrahydro-1H-benzo[e] pyrrolo[2,1-b][1,3] oxazin-1-one] is 41-fold lower in Ki: 934 nM for the first, 23 nM for the second. The second binds more tightly here.

Compared with `CC(C)C1(CCN2CCC(c3ccccc3)CC2)CC2Oc3ccc(C(F)(F)F)cc3CN2C1=O` (single isomer, unassigned) [3b, diastereomer 2], `CC(C)C1(CCN2CCC(Cc3ccccc3)CC2)CC2Oc3ccc(C(F)(F)F)cc3CN2C1=O` (stereo not shown) [Example 3n, 2-(2-(4-benzylpiperidin-1-yl)ethyl)-2-isopropyl-7-(trifluoromethyl)-2,3,3a,9-tetrahydro-1H-benzo[e] pyrrolo[2,1-b][1,3]oxazin-1-one] is 39-fold higher in Ki: 37.8 nM for the first, 1490 nM for the second.

Going from `CC(C)C1(CCN2CCC3(C=Cc4ccccc43)CC2)CC2Oc3ccc(C(F)(F)F)cc3CN2C1=O` (single isomer, unassigned) [3f, diastereomer 1] to `CC(C)C1(CCN2CCC(O)(c3ccccc3)CC2)CC2Oc3ccc(C(F)(F)F)cc3CN2C1=O` (stereo not shown) [Example 3m, 2-(2-(4-hydroxy-4-phenylpiperidin-1-yl)ethyl)-2-isopropyl-7-(trifluoromethyl)-2,3,3a,9-tetrahydro-1H-benzo[e]pyrrolo[2,1-b][1,3]oxazin-1-one], the Ki rises from 45.4 nM to 153 nM (3.4-fold).

Compared with `CC(C)C1(CCN2CCC3(C=Cc4ccccc43)CC2)CC2Oc3ccc(C(F)(F)F)cc3CN2C1=O` (single isomer, unassigned) [3f, diastereomer 2], `CC(C)C1(CCN2CCc3ccccc3C2)CC2Oc3ccc(C(F)(F)F)cc3CN2C1=O` (stereo not shown) [Example 3o, 2-(2-(3,4-dihydroisoquinolin-2(1H)-yl)ethyl)-2-isopropyl-7-(trifluoromethyl)-2,3,3a,9-tetrahydro-1H-benzo[e] pyrrolo[2,1-b][1,3]oxazin-1-one] is 350-fold higher in Ki: 11 nM for the first, 3890 nM for the second.

`CC(C)C1(CCN2CCCCC2)CCN(Cc2cc(C(F)(F)F)cc(C(F)(F)F)c2)C1=O` (stereo not shown) [Example 1a, 1-(3,5-bis(trifluoromethyl)benzyl)-3-isopropyl-3-(2-(piperidin-1-yl)ethyl)pyrrolidin-2-one] and `CC(C)C1(CCN2CCC(c3ccccc3)CC2)CCN(Cc2cc(C(F)(F)F)cc(C(F)(F)F)c2)C1=O` (stereo not shown) [Example 1b, 1-(3,5-bis(trifluoromethyl)benzyl)-3-isopropyl-3-(2-(4-phenylpiperidin-1-yl)ethyl)pyrrolidin-2-one] are within 1.5-fold of each other in Ki: 983 nM for the first, 933 nM for the second.

First: CC(C)C1(CCN2CC[C@@]3(C=Cc4ccccc43)[C@@H](C)C2)CCN(Cc2cc(C(F)(F)F)cc(C(F)(F)F)c2)C1=O (stereo partly drawn) [Example 1c, 1-(3,5-bis(trifluoromethyl)benzyl)-3-isopropyl-3-(2-((1R,3′R)-3′-methylspiro[indene-1,4′-piperidine]-1′-yl)ethyl) pyrrolidin-2-one]
Second: CC(C)C1(CCCN2CCC(c3ccccc3)CC2)CCN(Cc2cc(C(F)(F)F)cc(C(F)(F)F)c2)C1=O (stereo not shown) [Example 2a, 1-(3,5-bis(trifluoromethyl)benzyl)-3-isopropyl-3-(3-(4-phenylpiperidin-1-yl)propyl)pyrrolidin-2-one]
The Ki of the first is 4.8-fold lower: 736 nM for the first, 3510 nM for the second.

Compared with `CC(C)C1(CCNC(C)(C)C)CC2Oc3ccc(C(F)(F)F)cc3CN2C1=O` (stereo not shown) [Example 3a, 2-(2-(tert-butylamino)ethyl)-2-isopropyl-7-(trifluoromethyl)-2,3,3,a,9-tetrahydro-1H-benzo[e]pyrrolo[2,1-b][1,3]oxazin-1-one], `CC(C)C1(CCN2CCN(C)CC2)CC2Oc3ccc(C(F)(F)F)cc3CN2C1=O` (stereo not shown) [Example 3l, 2-isopropyl-2-(2-(4-methylpiperazin-1-yl)ethyl)-7-(trifluoromethyl)-2,3,3a,9-tetrahydro-1H-benzo[e]pyrrolo[2,1-b][1,3]oxazin-1-one] is 3.1-fold higher in Ki: 2540 nM for the first, 7910 nM for the second. The first binds more tightly here.

First: CC(C)C1(CCN2CCC(c3cccc(C(=O)O)c3)CC2)CC2Oc3ccc(C(F)(F)F)cc3CN2C1=O (stereo not shown) [Example 3c, 3-(1-(2-(2-isopropyl-1-oxo-7-(trifluoromethyl)-2,3,3a,9-tetrahydro-1H-benzo[e]pyrrolo[2,1-b][1,3]oxazin-2-yl)ethyl)piperidin-4-yl)benzoic acid]
Second: CC(C)C1(CCN2CCC(n3c(=O)[nH]c4ccccc43)CC2)CC2Oc3ccc(C(F)(F)F)cc3CN2C1=O (stereo not shown) [Example 3j, 2-isopropyl-2-(2-(4-(2-oxo-2,3-dihydro-1H-benzo[d]imidazol-1-yl)piperidin-1-yl)ethyl)-7-(trifluoromethyl)-2,3,3a,9-tetrahydro-1H-benzo[e]pyrrolo[2,1-b][1,3] oxazin-1-one]
The Ki of the first is 2-fold higher: 2610 nM for the first, 1280 nM for the second. The second binds more tightly here.

`CC(C)C1(CCN2CCN(c3ccc(F)cc3)CC2)CC2Oc3ccc(C(F)(F)F)cc3CN2C1=O` (stereo not shown) [Example 3k, 2-(2-(4-(4-fluorophenyl)piperazin-1-yl)ethyl)-2-isopropyl-7-(trifluoromethyl)-2,3,3a,9-tetrahydro-1H-benzo[e]pyrrolo[2,1-b][1,3] oxazin-1-one] showed a Ki of 1410 nM.
